From patent US20070049564A1 (Wyeth, priority 2005, published 2007)
≈ marks a conversion by molar mass, not a printed value. Like-named read-outs stand apart in the source and are kept apart here.

What was measured:
E. coli #311 = test: In vivo activity (oral, iv; ED50) against E. coli in mice; conditions: Escherichia coli
Source text: . […] Smith and E. Coli #311 in mammals.
Results of the tests (MIC, oral and IV) are list in Table 7.

E. coli = test: In vitro activity (MIC) against E. coli (Table 7); format: cell-based; conditions: Escherichia coli
Staph. aureus Smith = test: In vitro activity (MIC) against Staph. aureus Smith; format: cell-based; conditions: Staphylococcus aureus
S. cholerasius GC 1355 = test: MIC, broth microdilution
Method: Antimicrobial susceptibility testing. The in vitro activities of the antibiotics are determined by the broth microdilution method as recommended by the National Committee for Clinical Laboratory Standards (NCCLS) (1). Mueller-Hinton II broth (MHBII)(BBL Cockeysville, Md.) is the medium employed in the testing procedures. Microtiter plates containing serial dilutions of each antimicrobial agent are inoculated with each organism to yield the appropriate density (10^5 CFU/ml) in a 100 μl final volume. The plates are incubated for 18-22 hours at 35° C. in ambient air.
Presented in Tables I-XIII are representative compounds of Formula I which were evaluated against a panel of 40 selected gram-positive and gram-negative bacteria strains by pre-incubation in water, mouse serum or human serum. Representative compounds were first incubated in mouse serum for an hour prior to the in vitro testing against a panel of selected gram-positive and gram-negative bacteria strains. All compounds were also pre-incubated in water for an hour prior to testing as control. Representative compounds of Formula I were incubated in human serum prior to MIC determination.

Salmonella spp. GC 566 = test: MIC, broth microdilution; conditions: Salmonella
Salmonella spp. GC 235 = test: MIC, broth microdilution; conditions: Salmonella
[1] = single intravenous dose (SIV), read-out: ED50 E. coli #311 SIV
[2] = single intravenous dose, mice, Table 7, read-out: ED50 SIV (E. coli)
[3] = single oral dose (SOD), read-out: ED50 E. coli #311 SOD
[4] = single oral dose, mice, Table 7, read-out: ED50 SOD (E. coli)
[5] = SPP.GC566, pre-incubation in human serum
[6] = SPP.GC566, pre-incubation in mouse serum
[7] = SPP.GC566, pre-incubation in water
[8] = SPP.GC235, pre-incubation in human serum
[9] = SPP.GC235, pre-incubation in mouse serum
[10] = SPP.GC235, pre-incubation in water

CN(C)c1cc(NC(=O)CN(C(=O)OCOC(=O)C2CCCCC2)C(C)(C)C)c(O)c2c1C[C@H]1C[C@H]3[C@H](N(C)C)C(O)=C(C(N)=O)C(=O)[C@@]3(O)C(O)=C1C2=O [Example 50, ({[(2-{[(5aR,6aS,7S,10aS)-9-(aminocarbonyl)-4,7-bis(dimethylamino)-1,8,10a,11-tetrahydroxy-10,12-dioxo-5,5a,6,6a,7,10,10a,12-octahydrotetracen-2-yl]amino}-2-oxoethyl)(tert-butyl)amino]carbonyl}oxy)methyl cyclohexanecarboxylate]
ED50 (E. coli #311; [1]): 2.59 mg/kg | ED50 (E. coli #311; [2]): 1.7 mg/kg | ED50 (E. coli #311; [3]): > 64 mg/kg | ED50 (E. coli #311; [4]): 29.8 mg/kg | MIC (E. coli): > 64 µg/mL | MIC (Staph. aureus Smith; Table 6): 0.5 µg/mL (≈ 0.649 µM)

CC(C)CC(=O)OCOC(=O)N(CC(=O)Nc1cc(N(C)C)c2c(c1O)C(=O)C1=C(O)[C@]3(O)C(=O)C(C(N)=O)=C(O)[C@@H](N(C)C)[C@@H]3C[C@@H]1C2)C(C)(C)C [Example 53, ({[(2-{[(5aR,6aS,7S,10aS)-9-(aminocarbonyl)-4,7-bis(dimethylamino)-1,8,10a,11-tetrahydroxy-10,12-dioxo-5,5a,6,6a,7,10,10a,12-octahydrotetracen-2-yl]amino}-2-oxoethyl)(tert-butyl)amino]carbonyl}oxy)methyl 3-methylbutanoate]
ED50 (E. coli #311; [1]): 2.25 mg/kg | ED50 (E. coli #311; [2]): 2.25 mg/kg | ED50 (E. coli #311; [3]): 46.9 mg/kg | ED50 (E. coli #311; [4]): 46.9 mg/kg | MIC (E. coli): 32 µg/mL (≈ 43 µM) | MIC (Staph. aureus Smith; Table 6): 1 µg/mL (≈ 1.34 µM)

Cc1ccc(C(=O)OCOC(=O)N(CC(=O)Nc2cc(N(C)C)c3c(c2O)C(=O)C2=C(O)[C@]4(O)C(=O)C(C(N)=O)=C(O)[C@@H](N(C)C)[C@@H]4C[C@@H]2C3)C(C)(C)C)cc1 [Example 47]
ED50 (E. coli #311; [1]): 3.17 mg/kg | ED50 (E. coli #311; [3]): > 64 mg/kg | MIC (Staph. aureus Smith; Table 6): 4 µg/mL (≈ 5.14 µM)

CC(C)C(=O)OCOC(=O)N(CC(=O)Nc1cc(N(C)C)c2c(c1O)C(=O)C1=C(O)[C@]3(O)C(=O)C(C(N)=O)=C(O)[C@@H](N(C)C)[C@@H]3C[C@@H]1C2)C(C)(C)C [Example 45, ({[(2-{[(5aR,6aS,7S,10aS)-9-(aminocarbonyl)-4,7-bis(dimethylamino)-1,8,10a,11-tetrahydroxy-10,12-dioxo-5,5a,6,6a,7,10,10a,12-octahydrotetracen-2-yl]amino}-2-oxoethyl)(tert-butyl)amino]carbonyl}oxy)methyl 2-methylpropanoate]
ED50 (E. coli #311; [1]): 1.8 mg/kg | ED50 (E. coli #311; [2]): 1.8 mg/kg | ED50 (E. coli #311; [3]): 64 mg/kg | ED50 (E. coli #311; [4]): 64 mg/kg | MIC (E. coli): 64 µg/mL (≈ 87.7 µM) | MIC (Staph. aureus Smith; Table 6): 1 µg/mL (≈ 1.37 µM)

CN(C)c1cc(NC(=O)CN(C(=O)OCOC(=O)CC(C)(C)C)C(C)(C)C)c(O)c2c1C[C@H]1C[C@H]3[C@H](N(C)C)C(O)=C(C(N)=O)C(=O)[C@@]3(O)C(O)=C1C2=O [Example 42, ({[(2-{[(5aR,6aS,7S,10aS)-9-(aminocarbonyl)-4,7-bis(dimethylamino)-1,8,10a,11-tetrahydroxy-10,12-dioxo-5,5a,6,6a,7,10,10a,12-octahydrotetracen-2-yl]amino}-2-oxoethyl)(tert-butyl)amino]carbonyl}oxy)methyl 3,3-dimethylbutanoate]
ED50 (E. coli #311; [1]): 3.1 mg/kg | ED50 (E. coli #311; [2]): 3.1 mg/kg | ED50 (E. coli #311; [3]): 30.3 mg/kg | ED50 (E. coli #311; [4]): 30.3 mg/kg | MIC (E. coli): > 64 µg/mL | MIC (Staph. aureus Smith; Table 6): 8 µg/mL (≈ 10.6 µM)

CCCCCCC(=O)OCOC(=O)N(CC(=O)Nc1cc(N(C)C)c2c(c1O)C(=O)C1=C(O)[C@]3(O)C(=O)C(C(N)=O)=C(O)[C@@H](N(C)C)[C@@H]3C[C@@H]1C2)C(C)(C)C [Example 48, ({[(2-{[(5aR,6aS,7S,10aS)-9-(aminocarbonyl)-4,7-bis(dimethylamino)-1,8,10a,11-tetrahydroxy-10,12-dioxo-5,5a,6,6a,7,10,10a,12-octahydrotetracen-2-yl]amino}-2-oxoethyl)(tert-butyl)amino]carbonyl}oxy)methyl heptanoate]
ED50 (E. coli #311; [1]): 1.7 mg/kg | ED50 (E. coli #311; [2]): 1.7 mg/kg | ED50 (E. coli #311; [3]): 29.8 mg/kg | ED50 (E. coli #311; [4]): 29.8 mg/kg | MIC (E. coli): > 64 µg/mL | MIC (Staph. aureus Smith; Table 6): 0.25 µg/mL (≈ 0.324 µM)

CCC(C)(C)C(=O)OCOC(=O)N(CC(=O)Nc1cc(N(C)C)c2c(c1O)C(=O)C1=C(O)[C@]3(O)C(=O)C(C(N)=O)=C(O)[C@@H](N(C)C)[C@@H]3C[C@@H]1C2)C(C)(C)C [Example 44, ({[(2-{[(5aR,6aS,7S,10aS)-9-(aminocarbonyl)-4,7-bis(dimethylamino)-1,8,10a,11-tetrahydroxy-10,12-dioxo-5,5a,6,6a,7,10,10a,12-octahydrotetracen-2-yl]amino}-2-oxoethyl)(tert-butyl)amino]carbonyl}oxy)methyl 2,2-dimethylbutanoate]
ED50 (E. coli #311; [1]): 2.85 mg/kg | ED50 (E. coli #311; [2]): 2.85 mg/kg | ED50 (E. coli #311; [3]): 42.8 mg/kg | ED50 (E. coli #311; [4]): 42.8 mg/kg | MIC (E. coli): > 64 µg/mL | MIC (Staph. aureus Smith; Table 6): 4 µg/mL (≈ 5.28 µM)

CCCN(CC(=O)Nc1cc(N(C)C)c2c(c1O)C(=O)C1=C(O)[C@]3(O)C(=O)C(C(N)=O)=C(O)[C@@H](N(C)C)[C@@H]3C[C@@H]1C2)C(=O)OCOC(=O)c1ccc(C(C)(C)C)cc1 [Example 28, ({[(2-{[(5aR,6aS,7S,10aS)-9-(aminocarbonyl)-4,7-bis(dimethylamino)-1,8,10a,11-tetrahydroxy-10,12-dioxo-5,5a,6,6a,7,10,10a,12-octahydrotetracen-2-yl]amino}-2-oxoethyl)(propyl)amino]carbonyl}oxy)methyl 4-tert-butylbenzoate]
ED50 (E. coli #311; [1]): > 2 mg/kg | ED50 (E. coli #311; [3]): > 32 mg/kg | MIC (Staph. aureus Smith; Table 8): 32 µg/mL (≈ 39.7 µM)

CCCN(CC(=O)Nc1cc(N(C)C)c2c(c1O)C(=O)C1=C(O)[C@]3(O)C(=O)C(C(N)=O)=C(O)[C@@H](N(C)C)[C@@H]3C[C@@H]1C2)C(=O)OCOC(=O)c1cc(C)cc(C)c1 [Example 26, ({[(2-{[(5aR,6aS,7S,10aS)-9-(aminocarbonyl)-4,7-bis(dimethylamino)-1,8,10a,11-tetrahydroxy-10,12-dioxo-5,5a,6,6a,7,10,10a,12-octahydrotetracen-2-yl]amino}-2-oxoethyl)(propyl)amino]carbonyl}oxy)methyl 3,5-dimethylbenzoate]
MIC (Staph. aureus Smith; Table 8): 0.5 µg/mL (≈ 0.643 µM)

CN(C)c1cc(NC(=O)CN(C(=O)OCOC(=O)C2CCC2)C(C)(C)C)c(O)c2c1C[C@H]1C[C@H]3[C@H](N(C)C)C(O)=C(C(N)=O)C(=O)[C@@]3(O)C(O)=C1C2=O [Example 62, ({[(2-{[(5aR,6aS,7S,10aS)-9-(aminocarbonyl)-4,7-bis(dimethylamino)-1,8,10a,11-tetrahydroxy-10,12-dioxo-5,5a,6,6a,7,10,10a,12-octahydrotetracen-2-yl]amino}-2-oxoethyl)(tert-butyl)amino]carbonyl}oxy)methyl cyclobutanecarboxylate]
ED50 (E. coli #311; [1]): 4 to 8 mg/kg | ED50 (E. coli #311; [3]): > 32 mg/kg | MIC (S. cholerasius GC 1355; pre-incubation in human serum): 32 µg/mL (≈ 43.1 µM) | MIC (S. cholerasius GC 1355; pre-incubation in mouse serum): 2 µg/mL (≈ 2.7 µM) | MIC (S. cholerasius GC 1355; pre-incubation in water): > 64 µg/mL | MIC (Salmonella spp. GC 566; [5]): 16 µg/mL (≈ 21.6 µM) | MIC (Salmonella spp. GC 566; [6]): 1 µg/mL (≈ 1.35 µM) | MIC (Salmonella spp. GC 566; [7]): > 64 µg/mL | MIC (Salmonella spp. GC 235; [8]): 8 µg/mL (≈ 10.8 µM) | MIC (Salmonella spp. GC 235; [9]): 1 µg/mL (≈ 1.35 µM) | MIC (Salmonella spp. GC 235; [10]): > 64 µg/mL

CCC(=O)OCOC(=O)N(CC(=O)Nc1cc(N(C)C)c2c(c1O)C(=O)C1=C(O)[C@]3(O)C(=O)C(C(N)=O)=C(O)[C@@H](N(C)C)[C@@H]3C[C@@H]1C2)C(C)(C)C [Example 49, ({[(2-{[(5aR,6aS,7S,10aS)-9-(aminocarbonyl)-4,7-bis(dimethylamino)-1,8,10a,11-tetrahydroxy-10,12-dioxo-5,5a,6,6a,7,10,10a,12-octahydrotetracen-2-yl]amino}-2-oxoethyl)(tert-butyl)amino]carbonyl}oxy)methyl propionate]
ED50 (E. coli #311; [1]): 2.2 mg/kg | ED50 (E. coli #311; [2]): 2.2 mg/kg | ED50 (E. coli #311; [3]): 49 mg/kg | ED50 (E. coli #311; [4]): 49 mg/kg | MIC (E. coli): 64 µg/mL (≈ 89.4 µM) | MIC (Staph. aureus Smith; Table 6): 0.25 µg/mL (≈ 0.349 µM)

CN(C)c1cc(NC(=O)CN(C(=O)OCOC(=O)CCC2CCCCC2)C(C)(C)C)c(O)c2c1C[C@H]1C[C@H]3[C@H](N(C)C)C(O)=C(C(N)=O)C(=O)[C@@]3(O)C(O)=C1C2=O [Example 63, ({[(2-{[(5aR,6aS,7S,10aS)-9-(aminocarbonyl)-4,7-bis(dimethylamino)-1,8,10a,11-tetrahydroxy-10,12-dioxo-5,5a,6,6a,7,10,10a,12-octahydrotetracen-2-yl]amino}-2-oxoethyl)(tert-butyl)amino]carbonyl}oxy)methyl 3-cyclohexylpropanoate]
ED50 (E. coli #311; [1]): 4 to 8 mg/kg | ED50 (E. coli #311; [3]): > 32 mg/kg | MIC (S. cholerasius GC 1355; pre-incubation in human serum): > 64 µg/mL | MIC (S. cholerasius GC 1355; pre-incubation in mouse serum): 2 µg/mL (≈ 2.51 µM) | MIC (S. cholerasius GC 1355; pre-incubation in water): > 64 µg/mL | MIC (Salmonella spp. GC 566; [5]): > 64 µg/mL | MIC (Salmonella spp. GC 566; [6]): 1 µg/mL (≈ 1.25 µM) | MIC (Salmonella spp. GC 566; [7]): > 64 µg/mL | MIC (Salmonella spp. GC 235; [8]): > 64 µg/mL | MIC (Salmonella spp. GC 235; [9]): 1 µg/mL (≈ 1.25 µM) | MIC (Salmonella spp. GC 235; [10]): > 64 µg/mL

CCCCC(=O)OCOC(=O)N(CC(=O)Nc1cc(N(C)C)c2c(c1O)C(=O)C1=C(O)[C@]3(O)C(=O)C(C(N)=O)=C(O)[C@@H](N(C)C)[C@@H]3C[C@@H]1C2)C(C)(C)C [Example 61, ({[(2-{[(5aR,6aS,7S,10aS)-9-(aminocarbonyl)-4,7-bis(dimethylamino)-1,8,10a,11-tetrahydroxy-10,12-dioxo-5,5a,6,6a,7,10,10a,12-octahydrotetracen-2-yl]amino}-2-oxoethyl)(tert-butyl)amino]carbonyl}oxy)methyl pentanoate]
ED50 (E. coli #311; [1]): 2 to 4 mg/kg | ED50 (E. coli #311; [3]): > 32 mg/kg | MIC (S. cholerasius GC 1355; pre-incubation in human serum): 64 µg/mL (≈ 86 µM) | MIC (S. cholerasius GC 1355; pre-incubation in mouse serum): 2 µg/mL (≈ 2.69 µM) | MIC (S. cholerasius GC 1355; pre-incubation in water): > 64 µg/mL | MIC (Salmonella spp. GC 566; [5]): 32 µg/mL (≈ 43 µM) | MIC (Salmonella spp. GC 566; [6]): 1 µg/mL (≈ 1.34 µM) | MIC (Salmonella spp. GC 566; [7]): > 64 µg/mL | MIC (Salmonella spp. GC 235; [8]): 16 µg/mL (≈ 21.5 µM) | MIC (Salmonella spp. GC 235; [9]): 1 µg/mL (≈ 1.34 µM) | MIC (Salmonella spp. GC 235; [10]): > 64 µg/mL
